Laboratory results: ChEMBL document CHEMBL6127062, “Targeted degradation of METTL3 against acute myeloid leukemia and gastric cancer” (Eur J Med Chem, 2024)
pIC50: −log10 of the molar value. Activity calls are given as the source filed them. The rule behind the calls is not given here.

Assays:
AGS = experiment: Anticancer activity against human AGS cells assessed as inhibition of cell growth incubated for 72 hrs by cell viability assay; assay type: functional, cell-based
GES1 [1] = experiment: Anticancer activity against human GES1 cells assessed as inhibition of cell growth incubated for 72 hrs by cell viability assay; assay type: functional, cell-based
MOLM-13 [2] = experiment: Antiproliferative activity against human MOLM-13 cells assessed as inhibition of cell proliferation measured after 72 hrs by Celltiter Glo luminescent cell viability assay; assay type: functional, cell-based; conditions: MOLM-13, 72 h
SNU-484 = experiment: (§1) Anticancer activity against human SNU484 cells assessed as inhibition of cell growth incubated for 72 hrs by cell viability assay; assay type: functional, cell-based
[3] = biological target: T1, Protein cereblon/N(6)-adenosine-methyltransferase catalytic subunit METTL3 (Homo sapiens) (UniProt Q96SW2+Q86U44); experiment: PROTAC activity at CRBN/METTL3 in human MOLM-13 cells assessed as induction of METTL3 degradation at 1 uM by Western blot analysis relative to control; assay type: cell-based
T1 sequence (Q86U44 whole entry, looked up): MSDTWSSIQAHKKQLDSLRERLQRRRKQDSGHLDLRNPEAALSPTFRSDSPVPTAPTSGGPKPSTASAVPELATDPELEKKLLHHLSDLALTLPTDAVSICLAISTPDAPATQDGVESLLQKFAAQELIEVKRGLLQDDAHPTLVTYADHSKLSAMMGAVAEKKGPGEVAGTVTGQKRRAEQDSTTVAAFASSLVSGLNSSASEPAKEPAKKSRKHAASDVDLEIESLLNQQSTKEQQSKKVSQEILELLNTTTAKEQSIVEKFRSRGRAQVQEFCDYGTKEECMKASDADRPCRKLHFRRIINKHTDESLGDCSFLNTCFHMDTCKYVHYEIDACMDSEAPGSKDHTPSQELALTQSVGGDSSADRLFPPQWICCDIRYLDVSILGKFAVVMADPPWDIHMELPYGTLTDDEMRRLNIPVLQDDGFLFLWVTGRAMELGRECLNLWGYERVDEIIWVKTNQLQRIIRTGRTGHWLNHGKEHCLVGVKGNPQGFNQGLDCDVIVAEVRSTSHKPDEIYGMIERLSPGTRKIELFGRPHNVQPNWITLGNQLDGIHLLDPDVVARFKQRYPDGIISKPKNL
T1 sequence (Q96SW2 whole entry, looked up): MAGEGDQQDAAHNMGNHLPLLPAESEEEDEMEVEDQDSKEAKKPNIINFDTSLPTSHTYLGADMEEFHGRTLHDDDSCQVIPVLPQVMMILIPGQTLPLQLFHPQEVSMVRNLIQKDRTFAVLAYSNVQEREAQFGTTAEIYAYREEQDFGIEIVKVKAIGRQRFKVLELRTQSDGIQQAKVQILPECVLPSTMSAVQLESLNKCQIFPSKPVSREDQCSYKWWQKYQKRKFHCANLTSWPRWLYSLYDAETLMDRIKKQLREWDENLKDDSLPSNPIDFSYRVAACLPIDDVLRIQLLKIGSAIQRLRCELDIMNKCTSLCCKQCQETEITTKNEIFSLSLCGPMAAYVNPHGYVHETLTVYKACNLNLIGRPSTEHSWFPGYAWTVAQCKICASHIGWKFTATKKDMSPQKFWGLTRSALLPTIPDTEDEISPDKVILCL

[4] = biological target: T1, Protein cereblon/N(6)-adenosine-methyltransferase catalytic subunit METTL3 (Homo sapiens); experiment: PROTAC activity at CRBN/METTL3 in human MOLM-13 cells assessed as induction of METTL3 degradation at 10 uM by Western blot analysis relative to control; assay type: cell-based
MOLM-13 [5] = experiment: Induction of apoptosis in human MOLM-13 cells at 5 uM incubated for 48 hrs by Annexin V/PI staining based flow cytometry analysis; assay type: functional, cell-based
[6] = biological target: T2, von Hippel-Lindau disease tumor suppressor/N(6)-adenosine-methyltransferase catalytic subunit METTL3 (Homo sapiens, UniProt P40337+Q86U44); experiment: PROTAC activity at VHL/METTL3 in human MOLM-13 cells assessed as induction of METTL3 degradation at 10 uM preincubated with VH032 for 2 hrs followed by compound addition and measured after 24 hrs by Western blot analysis; assay type: cell-based
Target sequence in this assay (Q86U44 2-580 partner limits assumed): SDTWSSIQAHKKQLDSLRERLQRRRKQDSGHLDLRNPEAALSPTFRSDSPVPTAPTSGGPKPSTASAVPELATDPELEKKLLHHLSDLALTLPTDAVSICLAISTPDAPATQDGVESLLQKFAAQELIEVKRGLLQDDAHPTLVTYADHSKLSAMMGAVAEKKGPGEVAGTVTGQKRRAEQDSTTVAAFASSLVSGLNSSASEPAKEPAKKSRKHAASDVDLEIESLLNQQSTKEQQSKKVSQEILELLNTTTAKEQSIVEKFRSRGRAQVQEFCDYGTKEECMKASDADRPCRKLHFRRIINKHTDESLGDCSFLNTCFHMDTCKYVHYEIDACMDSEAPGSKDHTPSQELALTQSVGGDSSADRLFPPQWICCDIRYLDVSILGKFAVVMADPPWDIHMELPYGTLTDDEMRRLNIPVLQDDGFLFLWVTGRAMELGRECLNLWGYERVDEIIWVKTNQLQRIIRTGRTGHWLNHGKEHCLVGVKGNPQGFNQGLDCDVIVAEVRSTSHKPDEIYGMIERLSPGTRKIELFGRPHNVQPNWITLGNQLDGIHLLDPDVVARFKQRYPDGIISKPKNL
Target sequence in this assay (P40337 whole entry): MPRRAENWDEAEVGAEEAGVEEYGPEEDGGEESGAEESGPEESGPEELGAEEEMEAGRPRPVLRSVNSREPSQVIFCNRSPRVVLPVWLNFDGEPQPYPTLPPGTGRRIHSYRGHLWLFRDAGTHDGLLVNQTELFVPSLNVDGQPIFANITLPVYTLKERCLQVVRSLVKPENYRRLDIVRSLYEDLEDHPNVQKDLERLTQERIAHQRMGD

[7] = biological target: T2, von Hippel-Lindau disease tumor suppressor/N(6)-adenosine-methyltransferase catalytic subunit METTL3; experiment: Binding affinity to N-Luc tagged METTL3 (unknown origin)/Halo-tagged VHL (unknown origin) HA-Ub expressed in HEK293T cells assessed as ternary complex formation by measuring increase ubiquitination level at 1 uM preincubated with epoxomicin for 2.5 hrs followed by compound addition and measured after 6 hrs by NanoBRET assay; assay type: cell-based
Target sequence in this assay (Q86U44 2-580 partner limits assumed): as the sequence (Q86U44 2-580 partner limits assumed) above
Target sequence in this assay (P40337 whole entry): as the sequence (P40337 whole entry) above

[8] = biological target: T2, von Hippel-Lindau disease tumor suppressor/N(6)-adenosine-methyltransferase catalytic subunit METTL3; experiment: PROTAC activity at VHL/METTL3 in human MOLM-13 cells assessed as induction of METTL3 degradation incubated for 4 to 24 hrs by Western blot analysis relative to control; assay type: cell-based; conditions: time 4-24 hrs
Target sequence in this assay (Q86U44 2-580 partner limits assumed): as the sequence (Q86U44 2-580 partner limits assumed) above
Target sequence in this assay (P40337 whole entry): as the sequence (P40337 whole entry) above

Gastric cancer organoid [9] = experiment: Anti-proliferative activity against patient derived GA352T organoids assessed as suppression of tumor growth incubated for 5 days by Celltiter-glo viability assay; assay type: functional, tissue-based; conditions: Homo sapiens; Neoplasm; time 5.0 day
[10] = biological target: T2, von Hippel-Lindau disease tumor suppressor/N(6)-adenosine-methyltransferase catalytic subunit METTL3; experiment: PROTAC activity at VHL/METTL3 in HEK293T cells assessed as induction of METTL3 degradation at 1 uM preincubated with epoxomicin for 2.5 hrs followed by compound addition and measured after 6 hrs by Western blot analysis; assay type: cell-based
Target sequence in this assay (Q86U44 2-580 partner limits assumed): as the sequence (Q86U44 2-580 partner limits assumed) above
Target sequence in this assay (P40337 whole entry): as the sequence (P40337 whole entry) above

[11] = biological target: T2, von Hippel-Lindau disease tumor suppressor/N(6)-adenosine-methyltransferase catalytic subunit METTL3; experiment: PROTAC activity at VHL/METTL3 in human MOLM-13 cells assessed as induction of METTL3 degradation at 10 uM by Western blot analysis relative to control; assay type: cell-based
Target sequence in this assay (Q86U44 2-580 partner limits assumed): as the sequence (Q86U44 2-580 partner limits assumed) above
Target sequence in this assay (P40337 whole entry): as the sequence (P40337 whole entry) above

Gastric cancer organoid [12] = experiment: Anti-proliferative activity against patient derived GA215T organoids assessed as suppression of tumor growth incubated for 5 days by Celltiter-glo viability assay; assay type: functional, tissue-based; conditions: Homo sapiens; Neoplasm; time 5.0 day
[13] = biological target: T2, von Hippel-Lindau disease tumor suppressor/N(6)-adenosine-methyltransferase catalytic subunit METTL3; experiment: PROTAC activity at VHL/METTL3 in human MOLM-13 cells assessed as induction of METTL3 degradation at 1 uM incubated for 4 hrs by Western blot analysis relative to control; assay type: cell-based
Target sequence in this assay (Q86U44 2-580 partner limits assumed): as the sequence (Q86U44 2-580 partner limits assumed) above
Target sequence in this assay (P40337 whole entry): as the sequence (P40337 whole entry) above

[14] = biological target: N6-adenosine-methyltransferase catalytic subunit (Homo sapiens) (UniProt Q86U44); experiment: Induction of thermal stabilization of endogenous METTL3 in human MOLM-13 cells incubated for 1 hrs by cellular thermal shift assay; assay type: cell-based
Sequence of N6-adenosine-methyltransferase catalytic subunit (Homo sapiens) (Q86U44 whole entry): as the sequence (Q86U44 whole entry, looked up) above

HL-60 = experiment: Antiproliferative activity against human HL-60 cells assessed as cell growth inhibition after 72 hrs by Celltiter Glo luminescent cell viability assay; assay type: functional, cell-based
[15] = biological target: T2, von Hippel-Lindau disease tumor suppressor/N(6)-adenosine-methyltransferase catalytic subunit METTL3; experiment: Binding affinity to N-Luc tagged METTL3 (unknown origin)/Halo-tagged VHL (unknown origin) expressed in HEK293T cells assessed as ternary complex formation by measuring decrease in BRET ratio at 30 uM preincubated with epoxomicin for 2 hrs followed by compound addition and measured after 4.5 hrs by NanoBRET assay; assay type: cell-based
[16] = biological target: T2, von Hippel-Lindau disease tumor suppressor/N(6)-adenosine-methyltransferase catalytic subunit METTL3; experiment: Binding affinity to N-Luc tagged METTL3 (unknown origin)/Halo-tagged VHL (unknown origin) expressed in HEK293T cells assessed as ternary complex formation by measuring increase in BRET ratio at 1 uM preincubated with epoxomicin for 2 hrs followed by compound addition and measured after 4.5 hrs by NanoBRET assay; assay type: cell-based
[17] = biological target: T2, von Hippel-Lindau disease tumor suppressor/N(6)-adenosine-methyltransferase catalytic subunit METTL3; experiment: PROTAC activity at VHL/METTL3 (unknown origin) expressed in HeLa cells incubated for 4 hrs presence of MZ1 by flow cytometry analysis; assay type: cell-based
[18] = biological target: T2, von Hippel-Lindau disease tumor suppressor/N(6)-adenosine-methyltransferase catalytic subunit METTL3; experiment: PROTAC activity at VHL/METTL3 expressed in human SNU-484 cells assessed as reduction of METTL3 protein level in nucleus fraction at 1 uM incubated for 24 hrs by Western blot analysis; assay type: cell-based
[19] = biological target: T2, von Hippel-Lindau disease tumor suppressor/N(6)-adenosine-methyltransferase catalytic subunit METTL3; experiment: PROTAC activity at VHL/METTL3 in human MOLM-13 cells assessed as induction of METTL3 degradation at 10 uM preincubated with UZH2 for 2 hrs followed by compound addition and measured after 24 hrs by Western blot analysis; assay type: cell-based
[20] = biological target: T2, von Hippel-Lindau disease tumor suppressor/N(6)-adenosine-methyltransferase catalytic subunit METTL3; experiment: PROTAC activity at VHL/METTL3 expressed in human AGS cells assessed as reduction of METTL3 protein level in nucleus fraction at 1 uM incubated for 24 hrs by Western blot analysis; assay type: cell-based
[21] = biological target: T2, von Hippel-Lindau disease tumor suppressor/N(6)-adenosine-methyltransferase catalytic subunit METTL3; experiment: PROTAC activity at VHL/METTL3 in human MOLM-13 cells assessed as induction of METTL3 degradation incubated for 24 hrs by Western blot analysis; assay type: cell-based
[22] = biological target: T2, von Hippel-Lindau disease tumor suppressor/N(6)-adenosine-methyltransferase catalytic subunit METTL3; experiment: PROTAC activity at VHL/METTL3 in HEK293T cells assessed as induction of METTL3 degradation at 1 uM preincubated with MG132 for 2.5 hrs followed by compound addition and measured after 6 hrs by Western blot analysis; assay type: cell-based
[23] = biological target: T2, von Hippel-Lindau disease tumor suppressor/N(6)-adenosine-methyltransferase catalytic subunit METTL3; experiment: PROTAC activity at VHL/METTL3 in HEK293T cells assessed as induction of METTL3 degradation at 1 uM preincubated with MLN4924 for 2.5 hrs followed by compound addition and measured after 6 hrs by Western blot analysis; assay type: cell-based
[24] = as §1; assay type: functional, cell-based; conditions: SNU-484, 72 h
[25] = biological target: N6-adenosine-methyltransferase catalytic subunit (Homo sapiens) (UniProt Q86U44); experiment: Induction of thermal stabilization of METTL3 in human MOLM-13 cells at 52.4 to 54.8 degreeC incubated for 1 hrs by cellular thermal shift assay; assay type: cell-based
[26] = biological target: T2, von Hippel-Lindau disease tumor suppressor/N(6)-adenosine-methyltransferase catalytic subunit METTL3; experiment: PROTAC activity at VHL/METTL3 expressed in human SNU-484 cells assessed as reduction of cytoplasmic METTL3 protein level at 1 uM incubated for 24 hrs by Western blot analysis; assay type: cell-based
HeLa = experiment: Binding affinity to METTL3/GFP-fused BRD4 (unknown origin) expressed in HeLa cells presence of MZ1 by Western blot analysis; assay type: cell-based; conditions: Homo sapiens
GES1 [27] = experiment: Cytotoxicity against human GES1 cells assessed as reduction in cell viability incubated for 24 hrs; assay type: toxicity, cell-based; conditions: ges1, 24 h
[28] = biological target: T2, von Hippel-Lindau disease tumor suppressor/N(6)-adenosine-methyltransferase catalytic subunit METTL3; experiment: PROTAC activity at VHL/METTL3 expressed in human AGS cells assessed as reduction of cytoplasmic METTL3 protein level at 1 uM incubated for 24 hrs by Western blot analysis; assay type: cell-based
MOLM-14 = experiment: Antiproliferative activity against human MOLM-14 cells assessed as cell growth inhibition after 72 hrs by Celltiter Glo luminescent cell viability assay; assay type: functional, cell-based
METTL3/METTL14 = METTL3/METTL14 (Homo sapiens, UniProt Q86U44); experiment: Inhibition of METTL3/METTL14 (unknown origin) using Oligo ssRNA as substrate incubated for 20 min by Hotspot RNA methyltransferase assay; assay type: protein-complex assay
Sequence of METTL3/METTL14 (Q86U44 whole entry): as the sequence (Q86U44 whole entry, looked up) above
Sequence of METTL3/METTL14 (Q9HCE5 whole entry, further chain): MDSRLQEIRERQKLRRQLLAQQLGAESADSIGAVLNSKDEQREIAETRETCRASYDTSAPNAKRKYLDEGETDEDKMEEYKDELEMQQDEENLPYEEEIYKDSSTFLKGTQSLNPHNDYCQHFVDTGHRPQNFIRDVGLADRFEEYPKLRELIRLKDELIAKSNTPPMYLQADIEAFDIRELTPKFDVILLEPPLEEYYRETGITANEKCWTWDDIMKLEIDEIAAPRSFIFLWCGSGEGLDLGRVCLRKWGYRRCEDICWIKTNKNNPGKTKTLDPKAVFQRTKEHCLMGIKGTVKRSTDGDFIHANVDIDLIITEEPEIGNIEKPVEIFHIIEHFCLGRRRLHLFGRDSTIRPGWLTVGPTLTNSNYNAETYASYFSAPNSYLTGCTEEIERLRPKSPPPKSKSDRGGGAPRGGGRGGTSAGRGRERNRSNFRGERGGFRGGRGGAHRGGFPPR

MOLM-13 [29] = experiment: Downregulation of C-Myc protein level expression in human MOLM-13 cells incubated for 24 hrs by Western blot analysis; assay type: functional, cell-based
[30] = biological target: T2, von Hippel-Lindau disease tumor suppressor/N(6)-adenosine-methyltransferase catalytic subunit METTL3; experiment: PROTAC activity at VHL/METTL3 in human MOLM-13 cells assessed as induction of METTL3 degradation at 1 uM by Western blot analysis; assay type: cell-based; conditions: time 4-24 hrs, TDE = time-dependent effect
[31] = biological target: T2, von Hippel-Lindau disease tumor suppressor/N(6)-adenosine-methyltransferase catalytic subunit METTL3; experiment: PROTAC activity at VHL/METTL3 (unknown origin) expressed in HeLa cells assessed as BRD4-eGFP_mCherry level incubated for 4 hrs in presence of MZ1 by flow cytometry analysis; assay type: cell-based
[32] = biological target: T2, von Hippel-Lindau disease tumor suppressor/N(6)-adenosine-methyltransferase catalytic subunit METTL3; experiment: PROTAC activity at VHL/METTL3 in human MOLM-13 cells assessed as induction of METTL3 degradation at 1 uM by Western blot analysis relative to control; assay type: cell-based
[33] = biological target: T2, von Hippel-Lindau disease tumor suppressor/N(6)-adenosine-methyltransferase catalytic subunit METTL3; experiment: PROTAC activity at VHL/METTL3 in human MOLM-13 cells assessed as induction of METTL3 degradation at 1 uM incubated for 24 hrs by Western blot analysis relative to control; assay type: cell-based
[34] = biological target: T2, von Hippel-Lindau disease tumor suppressor/N(6)-adenosine-methyltransferase catalytic subunit METTL3; experiment: PROTAC activity at VHL/METTL3 in HEK293T cells assessed as induction of METTL3 degradation at 1 uM preincubated with 3MA autophagy inhibitor for 2.5 hrs followed by compound addition and measured after 6 hrs by Western blot analysis; assay type: cell-based

CNc1cc(N2CCC3(CC2)CN(c2cc(F)c(CN4CCC(C)(C)CC4)cc2F)CC(=O)N3)ncn1
Activity (AGS): inactive
Activity (GES1 [1]): inactive
pIC50 (MOLM-13 [2]): 5.21
Activity (SNU-484): inactive

CC1(C)CCN(Cc2cc(F)c(N3CC(=O)NC4(CCN(c5cc(NCCCCCCCC(=O)N6CCN(c7ccc8c(c7)C(=O)N(C7CCC(=O)NC7=O)C8=O)CC6)ncn5)CC4)C3)cc2F)CC1 (stereo unspecified)
Activity [3]: 33%
Activity [4]: 29%

CC1(C)CCN(Cc2cc(F)c(N3CC(=O)NC4(CCN(c5cc(NCCCCCC(=O)N6CCN(c7ccc8c(c7)C(=O)N(C7CCC(=O)NC7=O)C8=O)CC6)ncn5)CC4)C3)cc2F)CC1 (stereo unspecified)
Activity [3]: 32%
Activity [4]: 35%

Cc1ncsc1-c1ccc(CNC(=O)[C@@H]2C[C@@H](O)CN2C(=O)[C@@H](NC(=O)CCCCCCCNc2cc(N3CCC4(CC3)CN(c3cc(F)c(CN5CCC(C)(C)CC5)cc3F)CC(=O)N4)ncn2)C(C)(C)C)cc1
Activity (MOLM-13 [5]): Active
Activity [6]: Active
Activity [7]: Active
Activity [8]: Dose-Dependent Effect
pIC50 (AGS): 5.83
Activity (Gastric cancer organoid [9]): Active
Activity [10]: inactive
Activity [11]: 50%
Activity (Gastric cancer organoid [12]): Active
Activity [13]: > 50%
Activity [14]: Dose-Dependent Effect
Activity (HL-60): Active
Activity [15]: inactive
pIC50 (GES1 [1]; GES1, 72 h): < 4.30
Activity [16]: Active
Activity [17]: Active
Activity [18]: Active
Activity [19]: inactive
Activity [20]: Active
Activity [21]: Dose-Dependent Effect
DC50 [21]: 0.22 µM
Activity [22]: inactive
pIC50 (MOLM-13 [2]): 5.98
Activity [23]: inactive
pIC50 [24]: 5.52
Activity [25]: Active
Activity [26]: Active
Activity (HeLa): Active
Activity (GES1 [27]): Toxic
Activity [28]: Active
Activity (MOLM-14): Active
pIC50 (METTL3/METTL14): 6.47
Activity (MOLM-13 [29]): Dose-Dependent Effect
Activity [30]: Tde
Activity [31]: inactive
Activity [32]: 84%
Activity [33]: 90%
Activity [34]: Active
